The text below walks through data of publication PMC12210405, “Identification of chemical scaffolds for targeting ubiquitin-specific protease 11 (USP11) through high-throughput virtual screening” (Journal of Enzyme Inhibition and Medicinal Chemistry, 2025).

The target of test [1] is T1, GST-USP11 (Homo sapiens, UniProt P51784).
T1 construct: The plasmids containing the intact USP11 gene were introduced into E. coli BL21-CodonPlus (DE3); made in house; host or cells: E. coli BL21-CodonPlus (DE3)
T1 sequence (P51784 whole entry): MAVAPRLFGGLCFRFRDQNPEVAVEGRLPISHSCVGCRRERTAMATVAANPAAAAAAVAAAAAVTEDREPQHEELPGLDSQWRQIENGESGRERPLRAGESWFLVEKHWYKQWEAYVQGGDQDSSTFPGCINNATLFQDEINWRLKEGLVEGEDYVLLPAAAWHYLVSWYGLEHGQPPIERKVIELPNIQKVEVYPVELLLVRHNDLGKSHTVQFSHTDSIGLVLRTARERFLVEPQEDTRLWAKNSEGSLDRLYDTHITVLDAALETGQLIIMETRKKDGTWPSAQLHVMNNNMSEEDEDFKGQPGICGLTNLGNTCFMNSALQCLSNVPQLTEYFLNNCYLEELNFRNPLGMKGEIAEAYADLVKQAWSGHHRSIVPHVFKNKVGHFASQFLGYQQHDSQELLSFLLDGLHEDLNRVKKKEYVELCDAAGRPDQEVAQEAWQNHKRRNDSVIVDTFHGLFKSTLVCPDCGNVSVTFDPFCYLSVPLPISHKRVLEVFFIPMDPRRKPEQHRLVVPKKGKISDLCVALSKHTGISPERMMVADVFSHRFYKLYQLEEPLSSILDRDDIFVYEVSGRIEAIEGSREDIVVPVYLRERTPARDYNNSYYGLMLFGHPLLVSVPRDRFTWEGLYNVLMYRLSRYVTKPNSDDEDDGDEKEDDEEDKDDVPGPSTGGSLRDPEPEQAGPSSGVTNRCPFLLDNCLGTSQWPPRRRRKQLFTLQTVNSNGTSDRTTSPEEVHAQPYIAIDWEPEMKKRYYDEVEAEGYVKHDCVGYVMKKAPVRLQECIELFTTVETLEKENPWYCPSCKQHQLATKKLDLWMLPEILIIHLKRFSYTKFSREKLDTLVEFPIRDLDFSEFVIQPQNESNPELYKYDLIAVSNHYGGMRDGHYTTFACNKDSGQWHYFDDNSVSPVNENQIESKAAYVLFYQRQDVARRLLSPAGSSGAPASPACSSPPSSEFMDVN
In words: Fluorescence-based deubiquitinating enzyme activity assay (Ub-AMC fluorogenic substrate). Conditions: for inhibition at 25 µM: read-out: Percent inhibition of USP11. Type of test: biochemical. From the text: The deubiquitinating enzyme (DUB) activity of USP11 was monitored using Ubiquitin AMC (Ub-AMC) (#U-550–050, R&D Systems, Minneapolis, MN, USA) as a fluorogenic substrate. […] USP11 DUB activity of vehicle control or each compound group was quantified by calculating the area under curve (AUC) using Prism 9 software (GraphPad, Boston, MA, USA).
Using a -fluorogenic substrate assay with ubiquitin 7-amido-4-methylcoumarin (Ub-AMC), we tested varying concentrations of both the protein and the substrate. […] Hits were defined as compounds that inhibited enzyme activity by more than 40%, as determined by fluorescence intensity at the 90-min endpoint.

The subject of test [2] is USP15. Conditions: cited from earlier work.
Test [3] addresses T1, GST-USP11. In words: Biolayer interferometry (BLI) assay. The class given is binding. As for the experimental part:
The binding affinities of tested compounds for USP11 were determined using BRAND® microplates (#BR781608, Merck, Darmstadt, Germany) and an Octet® R8 system (Sartorius AG, Göttingen, Germany). Octet GST Biosensors (#18–5096, Sartorius AG, Göttingen, Germany) captured with purified GST-USP11 (50 μg/ml) or without proteins were used as ligand sensors or reference sensors, respectively. For binding kinetic measurements, the association and dissociation of tested compounds (3.125–100 μM) in assay buffer (PBS, 0.02% Tween 20, 2% DMSO) were monitored at 25 °C with 1,000 rpm stirring for 90 s. For accurate baseline, wells containing assay buffer only were used as reference wells. All data were analysed by Octet BLI analysis software version 12.2 (Sartorius AG, Göttingen, Germany). The binding graphs were obtained using a double reference subtraction protocol and equilibrium dissociation constant (KD) values were calculated from the ratio of the dissociation rate constant (Kdis) to the association rate constant (Kon).

Where [4] appears, read: compound 25 µM, 90-min endpoint, Ub-AMC.

One may read the inhibition as the percentage by which the read-out fell short of the control. For `CCCCOc1cc(CN2CCN(c3ccc(NC(=N)c4ccc[nH]4)cc3)CC2)cc(OCCCC)c1O` [Compound 73], the inhibition at 25 µM in test [1] (setting [4]) was found to be 43.9%.
Same read-out and setting: the result for `N#CC1CC=NN1C(=O)CNC1CCC(Nc2ccc([N+](=O)[O-])c3nonc23)CC1` (centres unmarked) [Compound 18g] reads 70.9%; that for `N#CC1CCCN1C(=O)CNCCN1CCN(c2ccc([N+](=O)[O-])c3nonc23)CC1` (centres unmarked) [Compound 18h], 7.89%; that for `CCOC(=O)CCNc1ccc(Nc2ccc(C)cc2)c2c1C(=O)c1ccccc1C2=O` [Compound 74d], 0%.
As to `NCCNc1ccc(NCCN)c2c1C(=O)c1ccncc1C2=O` [Compound 74a], in test [1] (setting [4]), the inhibition at 25 µM came to 58.4%.
Same read-out and setting: for `Nc1ccc(O)c2c1C(=O)c1c(cccc1[N+](=O)[O-])C2=O` [Compound 74c] the value was 38.1%; for `O=[N+]([O-])c1ccc(N2CCCCC2)c2nonc12` [Compound 18b], 3.3%.
On the same count and under the same terms, the result for `CCCCCOc1cc(CN2CCN(c3ccc(NC(=N)c4cccs4)cc3)CC2)cc(OCCCCC)c1O` [Compound 73d] reads 23%; that for `CC(CO)C1CCC2C3C(CCC12C)C1(C)CCC(NCCCCN)C[C@@H]1C[C@H]3O` (some centres unmarked) [Compound 57], 44.8%; that for `O=[N+]([O-])c1ccc(N2CCCC2)c2nonc12` [Compound 18a], 15%.
Turning to `CCCCOc1cc(CN2CCN(c3ccc(NC(=N)c4cccs4)cc3)CC2)cc(OCCCC)c1O` [Compound 73e], the inhibition at 25 µM in test [1] (setting [4]) was 23%.
On the same count and under the same terms, the result for `NC1CCC(Nc2ccc([N+](=O)[O-])c3nonc23)CC1` (centres unmarked) [Compound 18e] reads 64.8%; that for `CCOc1cc(CN2CCN(c3ccc(NC(=N)c4ccc[nH]4)cc3)CC2)cc(OCC)c1O` [Compound 73b], 38.1%; that for `O=C1c2ccccc2C(=O)c2c1cc(N1CCOCC1)cc2N1CCCCC1` [Compound 74g], 6.51%.
Still for that read-out and setting: for `O=[N+]([O-])c1ccc(N2CCCCCC2)c2nonc12` [Compound 18c] the value was 36.9%; for `N#CC1CCCN1C(=O)CNC1CCC(Nc2ccc([N+](=O)[O-])c3nonc23)CC1` (centres unmarked) [Compound 18f], 23.8%.
As to `CN(c1ccc(C=O)cc1)c1cccc2c1C(=O)c1ccccc1C2=O` [Compound 74e], in test [1] (setting [4]), the inhibition at 25 µM is 16.8%.
As to `O=C1c2c(O)ccc(O)c2C(=O)c2c(NCCNCCO)ccc(NCCNCCO)c21` [Mitoxantrone, mitoxantrone], the “USP15 inhibition in words” value in test [2] was “also inhibits USP15”.
Broadly, the IC50 is the concentration at which inhibition is half-maximal. `CCCCOc1cc(/C=C/C(=O)N2CCN(c3ccc(NC(=N)c4ccc[nH]4)cc3)CC2)cc(OCCCC)c1O` [Compound 73f] registered an IC50 in test [1] (USP11, Figure S6) of 19.4 µM. In test [1] (setting [4]), the inhibition at 25 µM was found to be 89.9%.
Consider `Nc1ccc(NC(=O)c2ccccc2)c2c1C(=O)c1ccccc1C2=O` [Compound 74f], for which the inhibition at 25 µM in test [1] (setting [4]) is 7.38%.
As a reminder, the Kd is the equilibrium constant for the complex coming apart. The term kon denotes a measure of how fast the partners come together. A high value points to faster complex formation. Take `CC(C)[C@@H](CC[C@@H](C)[C@H]1CC[C@H]2[C@@H]3[C@H](O)C[C@H]4C[C@@H](NCCCNCCCCN)CC[C@]4(C)[C@H]3CC[C@]12C)OS(=O)(=O)O` [Squalamine, squalamine]: in test [1] (setting [4]), the “Percent inhibition of USP11” value is given as “completely inhibits”. Also, the IC50 in test [1] (recombinant USP11) amounted to 8.29 µM. For the same molecule, the Kd in test [3] was determined as 459 µM. Also, the kon in test [3] (Figure 3c) turned out to be 1380 M⁻¹ s⁻¹. Further, the koff in test [3] (Figure 3c, read-out: Kdis) turned out to be 0.634 s⁻¹.
As for `CCCCCOc1cc(CN2CCN(c3ccc(NC(=N)c4ccc[nH]4)cc3)CC2)cc(OCCCCC)c1O` [Compound 73a], in test [1] (USP11, Figure S6), 17.5 µM corresponded to half-maximal inhibition (IC50). Besides, the inhibition at 25 µM in test [1] (setting [4]) was determined as 90.3%.
With `CCOc1cc(/C=C/C(=O)N2CCN(c3ccc(NC(=N)c4ccc[nH]4)cc3)CC2)cc(OCC)c1O` [Compound 73c], the inhibition at 25 µM in test [1] (setting [4]) was 76.8%.
For `O=[N+]([O-])c1c(N2CCCCC2)cc(N2CCCCC2)c2nonc12` [Compound 18d], the inhibition at 25 µM in test [1] (setting [4]) was found to be 27.9%.
On the same count and under the same terms, the result for `O=C(CCc1ccc(F)cc1)N/N=C/c1ccc(O)c(O)c1O` [Compound 29] reads 41.5%.
The same measure, in the same setting: for `N#CC1CCCN1C(=O)CNC1CCCN(c2ccc([N+](=O)[O-])c3nonc23)C1` (centres unmarked) [Compound 18] the value was 55.8%.
